Like-named read-outs stand apart in the source and are kept apart here.
What was measured:
[1] = system: D168A genotype 1a HCV Con1 luciferase reporter replicon in Huh7 cells; assay: Viral replicon-based inhibition assay, D168A variant; format: cell-based, HCV genotype 1a; settings: Hepatitis C virus, Huh-7, 96 h, read-out: Replicon - IC50, D168A
Text: (§1) Single mutations (R155K, D168A, or A156T) were introduced into the NS3 region of genotype 1a HCV Con1 luciferase reporter replicon using the mega-primer method of mutagenesis. Replicon RNA of each protease variant was introduced into Huh7 cells by electroporation.

[2] = system: wild-type genotype 1a HCV Con1 luciferase reporter replicon in Huh7 cells; assay: Viral replicon-based inhibition assay, wild-type; format: cell-based, HCV genotype 1a; settings: Hepatitis C virus, Huh-7, luciferase activity 96 hours after electroporation, read-out: Replicon - IC50, WT
Text: . The antiviral activities against the resistant variants trended with changes in binding affinities measured in enzyme inhibition assays (Table 1). […]. Single mutations (R155K, D168A, or A156T) were introduced into the NS3 region of genotype 1a HCV Con1 luciferase reporter replicon using the mega-primer method of mutagenesis. Replicon RNA of each protease variant was introduced into Huh7 cells by electroporation. […]. The drug concentrations required to inhibit replicon replication by 50% (IC50) were calculated directly from the drug inhibition curves.

[3] = system: R155K genotype 1a HCV Con1 luciferase reporter replicon in Huh7 cells; assay: Viral replicon-based inhibition assay, R155K variant; format: cell-based, HCV genotype 1a; settings: Hepatitis C virus, Huh-7, 96 h, read-out: Replicon - IC50, R155K
Text: as §1

[4] = system: A156T genotype 1a HCV Con1 luciferase reporter replicon in Huh7 cells; assay: Viral replicon-based inhibition assay, A156T variant; format: cell-based, HCV genotype 1a; settings: Hepatitis C virus, Huh-7, 96 h, read-out: Replicon - IC50, A156T
Text: as §1

[5] = biological target: genotype 1a HCV NS3/4A protease domain (wild-type) (Hepatitis C virus genotype 1a, UniProt A8DG50); assay: biochemical; parameters: species or system HCV genotype 1a
genotype 3 viruses = genotype 3 viruses (Q168, T123); cited from earlier work
[6] = biological target: T1, genotype 1a HCV NS3/4A protease domain A156T (Hepatitis C virus genotype 1a, UniProt P27958, A1182T); assay: biochemical; parameters: species or system HCV genotype 1a
T1 construct: single-chain construct of the genotype 1a NS3/4A protease domain; His-tag (cleaved yes); made in house; host or cells: E. coli BL21 (DE3)

[7] = apparent Ki, Morrison equation, 5 nM protease, triplicate, average ± standard deviation, read-out: Binding - Ki, WT

| Structure (SMILES) | IC50 [1] | IC50 [2] | IC50 [3] | IC50 [4] | Ki [5] | Ki [5, 7] | Efficacy against genotype 3 viruses (genotype 3 viruses) | Ki [6] |
| --- | --- | --- | --- | --- | --- | --- | --- | --- |
| CCC[C@H](NC(=O)[C@@H]1[C@H]2CCC[C@H]2CN1C(=O)[C@@H](NC(=O)[C@@H](NC(=O)c1cnccn1)C1CCCCC1)C(C)(C)C)C(=O)C(=O)NC1CC1 [Telaprevir (VX-950), Telaprevir] | 420 nM | 1030 nM | 5300 nM | > 50000 nM | 34.4 ± 3 nM | – | – | – |
| CC[C@@H]1C[C@]1(NC(=O)[C@@H]1C[C@@H]2CN1C(=O)[C@H](C(C)(C)C)NC(=O)OCC(C)(C)CCCCc1cccc3c1CN(C3)C(=O)O2)C(=O)NS(=O)(=O)C1CC1 [Vaniprevir (MK-7009), Vaniprevir] | > 400 nM | 0.34 nM | > 400 nM | 176 nM | – | 0.74 ± 0.07 nM | reduced efficacy | – |
| C=C[C@@H]1C[C@]1(NC(=O)[C@@H]1C[C@@H]2CN1C(=O)[C@H](C(C)(C)C)NC(=O)O[C@@H]1C[C@H]1CCCCCc1nc3ccc(OC)cc3nc1O2)C(=O)NS(=O)(=O)C1CC1 [MK-5172] | 13 nM | 0.11 nM | 0.55 nM | 108 nM | – | – | – | – |
| CC(C)(C)OC(=O)N[C@H]1CCCCC/C=C\[C@@H]2C[C@@]2(C(=O)NS(=O)(=O)C2CC2)NC(=O)[C@@H]2C[C@@H](OC(=O)N3Cc4cccc(F)c4C3)CN2C1=O [Danoprevir (ITMN-191), Danoprevir] | 48 nM | 0.24 nM | > 100 nM | 5.7 nM | – | 1 ± 0.1 nM | reduced efficacy | 44.8 ± 3.6 nM |

Reference: PMC3406087, “The Molecular Basis of Drug Resistance against Hepatitis C Virus NS3/4A Protease Inhibitors” (PLoS Pathogens, 2012)
